Measurements: PubChem BioAssay (NCI)
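Compound exposure: 48 hours, 5 concentrations, 96-well plates. Definition used: TGI = concentration required for complete inhibition of growth.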

What was measured:
Assay in all cases: DTP human tumour cell line panel, 48 h
CCRF-CEM leukemia = test system: CCRF-CEM leukemia
HCT-116 colon = test system: HCT-116 colon
HCT-15 colon = test system: HCT-15 colon
HOP-92 NSCLC = test system: HOP-92 NSCLC
HS 578T breast = test system: HS 578T breast
HT29 colon = test system: HT29 colon
IGROV1 ovarian = test system: IGROV1 ovarian
MCF7 breast = test system: MCF7 breast
MOLT-4 leukemia = test system: MOLT-4 leukemia
NCI-H460 lung = test system: NCI-H460 lung
NCI-H522 lung = test system: NCI-H522 lung
OVCAR-3 ovarian = test system: OVCAR-3 ovarian
RPMI-8226 leukemia = test system: RPMI-8226 leukemia
RXF 393 renal = test system: RXF 393 renal
SK-MEL-2 melanoma = test system: SK-MEL-2 melanoma
SNB-19 CNS = test system: SNB-19 CNS
SW-620 colon = test system: SW-620 colon
TK-10 renal = test system: TK-10 renal
U251 CNS = test system: U251 CNS
UO-31 renal = test system: UO-31 renal

| Structure (SMILES) | TGI (CCRF-CEM leukemia) [µM] | TGI (HCT-116 colon) [µM] | TGI (HCT-15 colon) [µM] | TGI (HOP-92 NSCLC) [µM] | TGI (HS 578T breast) [µM] | TGI (HT29 colon) [µM] | TGI (IGROV1 ovarian) [µM] | TGI (MCF7 breast) [µM] | TGI (MOLT-4 leukemia) [µM] | TGI (NCI-H460 lung) [µM] | TGI (NCI-H522 lung) [µM] | TGI (OVCAR-3 ovarian) [µM] | TGI (RPMI-8226 leukemia) [µM] | TGI (RXF 393 renal) [µM] | TGI (SK-MEL-2 melanoma) [µM] | TGI (SNB-19 CNS) [µM] | TGI (SW-620 colon) [µM] | TGI (TK-10 renal) [µM] | TGI (U251 CNS) [µM] | TGI (UO-31 renal) [µM] |
| --- | --- | --- | --- | --- | --- | --- | --- | --- | --- | --- | --- | --- | --- | --- | --- | --- | --- | --- | --- | --- |
| CCOC(=O)c1ccc(OCc2nc3cc(C(F)(F)F)ccc3nc2-c2ccccc2)cc1 | > 100 | > 100 | > 100 | > 100 | > 100 | > 100 | > 100 | > 100 | > 100 | > 100 | > 100 | > 100 | > 100 | > 100 | > 100 | > 100 | > 100 | > 100 | > 100 | > 100 |
| COc1cc(/C=C2/CCCc3ccccc3C2=O)cc(OC)c1OC | > 100 | > 49.9 | > 100 | > 82.2 | > 84.2 | > 100 | > 100 | > 63.9 | > 35 | > 100 | 41 | > 55.6 | > 78.9 | > 100 | > 55 | > 100 | > 100 | > 100 | > 88.4 | > 60.2 |
| CC(=O)NC1C(O)C(O)C(CO)OC1n1nc(SCc2ccccc2)c(=O)[nH]c1=O (stereo not given) | > 100 | > 100 | > 100 | > 100 | > 100 | > 100 | > 100 | > 100 | > 100 | > 100 | > 100 | > 100 | > 100 | > 100 | > 100 | > 100 | > 100 | > 100 | > 100 | > 100 |
| O=P1(N(CCCl)CCCl)Oc2c(Cl)cc(Cl)c(Cl)c2Cc2c(Cl)c(Cl)cc(Cl)c2O1 | > 100 | > 100 | > 100 | 66.5 | > 100 | > 100 |  | > 100 | > 100 | > 100 | > 100 | > 100 | > 100 | > 100 | 74.5 |  | > 100 | > 100 | > 100 | > 100 |
| Clc1ccc(C2ON=C(c3ccccc3)N2C23CC4CC(CC(C4)C2)C3)cc1Cl (stereo not given) | > 10 | > 10 | > 10 | > 10 | > 10 | > 10 | > 10 | > 10 | > 10 | > 10 | > 10 | > 10 | > 10 | > 10 | > 10 | > 10 | > 10 | > 10 | > 10 | > 10 |
| Nc1nc(Cl)cc(NCC2(CO)CC(CCCc3ccccc3)C2)n1 (stereo not given) | > 100 | > 100 | > 100 | > 95.9 | > 100 | > 100 | > 100 | > 100 | > 100 | > 100 | > 100 | > 100 | > 100 | > 78.2 | > 100 | > 100 | > 100 | > 100 | > 100 | > 100 |
| CCOC(=O)CC[C@H](NC(=O)c1ccc(CNc2nc3cc(C(F)(F)F)ccc3nc2C(=O)OCC)cc1)C(=O)OCC | > 100 | > 100 | > 100 | 48.9 | 19.7 | > 100 | > 53.4 | > 51.9 | > 100 | 77.7 | 29.1 | > 53.2 | > 100 | > 100 | > 94.1 | 25.4 | > 100 | 38.5 | 18.5 | 70.3 |
| CCCCCCCCCCCCCCCCCCNc1ccn(C2OC(COP(=O)(O)OCC(COP(=O)(O)OCC3OC(n4cc(C)c(=O)[nH]c4=O)CC3N=[N+]=[N-])OCCCCCCCCCCCCCCCCCC)C(O)C2O)c(=O)n1 (stereo not given) | > 100 | > 100 | > 100 | > 100 | > 100 | > 100 | > 100 | > 100 | > 100 | > 100 | 96.5 | > 100 | > 100 | > 100 | > 100 | 50.5 | > 100 | > 100 | 27.8 | 33.1 |
| Cn1c(=O)c2c(nc(N3CCOCC3)n2CCCNCC(O)c2ccc(O)c(O)c2)n(C)c1=O (stereo not given) | > 100 | > 100 | > 100 | > 100 | > 100 | > 100 | > 100 | > 100 | > 100 | > 100 | > 100 | > 100 | > 100 | > 100 | > 100 | > 100 | > 100 | > 100 | > 100 | > 100 |
| Cc1c2ccccc2c(CSC(=N)N)c2ccccc12 | 0.0588 | 1.35 | 1.96 | 1.43 | 0.475 | 1.05 | 2.36 | 0.518 | 0.127 | 0.374 | 0.196 | 2.73 | 0.558 | 0.161 | 0.375 | 1.39 | 0.947 | 0.667 | 0.818 | 0.511 |
| CC(=O)N(C(=O)CC(=O)NNCc1ccccc1Cl)c1ccc(Cl)cc1 | > 10 | > 10 | > 10 | > 10 | > 10 | > 10 | > 10 | > 10 | > 10 | > 10 | > 10 | > 10 | > 10 | > 10 | > 10 | > 10 |  | > 10 | > 10 | > 10 |
| O=[N+]([O-])c1ccc(CSc2c3ccccc3nc3ccccc23)cc1 | > 22.9 | 7.14 | 27.5 | > 37.3 | 11.3 | 6.36 | 7.66 | > 100 | > 21.2 | 46.9 | 3.62 | 14.4 | 9.29 | 18.5 | 32.3 | 37.4 | > 24.4 | 17.4 | 20.9 | 17 |
| SCc1ccc(-c2ccc(CS)cc2)cc1 | 10.7 | 17.8 | 33.3 | 40.8 | 22.3 | 69.8 | 32.5 | 29.3 | 6.37 | 25.1 | 37.7 | 32.2 | 30.6 | 32.9 | 41.5 | 36.4 | 60 | > 61.3 | 31.1 | 37.8 |
| COC(=O)c1c(O)ccc2c1c1cc3ccccc3c(O)c1n2Cc1ccccc1Cl | > 100 | 28 | 77.1 | 91.7 | 84.4 | 25 | 44.8 | > 100 | > 100 | 78.4 | 29.5 | 39.8 | 70 | > 100 | 40.7 | > 100 |  | > 100 | > 100 | 64.1 |
| Cc1nnc(N2C(=O)C(=Cc3ccc(Cl)cc3)N=C2c2ccc(Cl)cc2)nc1/C=C\c1ccc(N(C)C)cc1 | > 100 | > 100 | > 100 | > 100 | > 100 | > 100 | > 100 | > 100 | > 100 | > 100 | > 100 | > 100 | > 100 | > 100 | > 100 | > 100 | > 100 | > 100 | > 100 | > 100 |
| CC(=O)Oc1c(C)cc2c(c1C)C(C)(C)CN2C(=O)C(C)(C)C | > 100 | > 100 | > 100 | 74.4 | > 100 | > 100 | > 100 | > 100 | > 100 | > 100 | > 100 | > 100 | > 100 | > 100 | > 100 | > 100 | > 100 | > 100 | > 100 | > 100 |
| Cc1cccc(C)c1NC(=O)C(=O)C(c1ccccc1Cl)S(=O)(=O)Cc1ccccc1Cl (stereo not given) | > 100 | > 100 | > 100 | 44 | > 100 | > 100 | > 100 | > 100 | > 100 | > 100 | > 100 | > 100 | > 100 | 80.2 | > 100 | > 92 | > 100 | > 100 | > 100 | > 100 |
| CSC1=NC(=O)CCN1C1OCC(OC(C)=O)C(OC(C)=O)C1OC(C)=O (stereo not given) | > 31.6 | > 31.6 | > 31.6 | 27 | 22.5 | > 31.6 | 23 | > 100 | > 31.6 | > 31.6 | > 31.6 | 18.6 | > 31.6 | 23.6 | 22.9 | > 31.6 | > 31.6 | 26 | > 31.6 | 57.8 |
| N=C1/C(=C/c2ccco2)C(=O)N=C2SC=NN12 | > 100 | > 100 | > 100 | > 100 | > 100 | > 100 | > 100 | > 100 | > 100 | > 100 | > 100 | > 100 | > 100 | > 100 | > 100 | > 100 | > 100 | > 100 | > 100 | > 100 |
| NCc1ccc(O)c(O)c1O | 56.6 | 30.5 | 47.7 | > 96 | 54.9 | 29.2 | > 86.3 | 36.3 | 64.9 | 34 | > 90.9 | 47 | 64.8 | > 81.1 | 57.2 | > 97.3 | 43.3 | > 100 | 52.6 | > 100 |
| O=c1[nH]c(=S)n(-c2cccc3ccccc23)c(O)c1/C=C1\C=Nc2ccccc21 | 5.35 | 4.55 | 3.45 | 4.85 | 58.8 | 5.03 | 4.76 | 7.19 | 5.02 | 5.38 | 10.2 | 12.6 | 4.96 | 3.43 | 3.55 | 11.3 | 6.73 | 6.06 | 5.45 | 4.93 |
| NNC(=O)CC(=O)Nc1ccccc1Cl | > 100 | > 100 | > 100 | > 100 | > 100 | > 100 | > 100 | > 100 | > 100 | > 100 | > 100 | > 100 | > 100 | > 100 | > 100 | > 100 | > 100 | > 100 | > 100 | > 100 |
| C=CC(C)CCC(C/C=C(\C)CCCC(C)C)C(=C)CCCC(C)C (stereo not given) | > 100 | > 100 | > 100 | > 100 | > 100 |  | > 100 | > 100 | > 100 | > 100 | > 100 | > 100 | > 100 | > 100 | > 100 | > 100 | > 100 | > 100 | > 100 | > 100 |
